Source: PMC6657685, “Cloning, purification, and characterization of GH3 β-glucosidase, MtBgl85, from Microbulbifer thermotolerans DAU221” (PeerJ, 2019)

Molecular target: T1, MtBgl85 (Microbulbifer thermotolerans, UniProt Z9ZKX7DI54)
T1 construct: signal peptide (1-25, predicted) removed; N-terminal His6 tag (pCold I); expressed in E. coli BL21 (DE3); precursor 772 residues, mature 747 residues, 81,924 Da; about 85 kDa on SDS-PAGE; monomer
T1 sequence (Z9ZKX7DI54 26-772): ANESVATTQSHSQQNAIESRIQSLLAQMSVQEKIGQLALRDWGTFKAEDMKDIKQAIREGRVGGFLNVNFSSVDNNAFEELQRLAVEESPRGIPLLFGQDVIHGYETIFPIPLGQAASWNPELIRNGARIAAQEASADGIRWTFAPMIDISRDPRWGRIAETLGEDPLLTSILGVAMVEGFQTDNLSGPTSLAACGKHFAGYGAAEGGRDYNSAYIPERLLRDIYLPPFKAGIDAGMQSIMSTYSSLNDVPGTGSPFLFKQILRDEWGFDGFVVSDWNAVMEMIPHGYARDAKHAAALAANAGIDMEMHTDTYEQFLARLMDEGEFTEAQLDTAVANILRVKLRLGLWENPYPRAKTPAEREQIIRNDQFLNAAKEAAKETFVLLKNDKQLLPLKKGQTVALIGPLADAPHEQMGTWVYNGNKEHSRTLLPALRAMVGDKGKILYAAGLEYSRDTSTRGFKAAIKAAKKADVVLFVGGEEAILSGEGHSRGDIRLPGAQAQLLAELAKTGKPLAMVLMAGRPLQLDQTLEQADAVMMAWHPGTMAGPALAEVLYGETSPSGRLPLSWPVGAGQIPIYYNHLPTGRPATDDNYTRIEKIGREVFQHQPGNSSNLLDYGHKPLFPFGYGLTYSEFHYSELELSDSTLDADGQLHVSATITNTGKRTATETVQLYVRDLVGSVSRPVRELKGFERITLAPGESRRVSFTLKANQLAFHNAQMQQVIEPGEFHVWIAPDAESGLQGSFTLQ
Test: residual activity with pNPβG
Format: biochemical
Conditions: read-out: % residual activity at 10 mM

OC[C@H]1OC(O)[C@H](O)[C@@H](O)[C@@H]1O (stereo partly shown) [glucose] gave a remaining activity at 10000 µM of 59%.
